From patent US20210078988A1, “MODULATORS OF INDOLEAMINE 2,3-DIOXYGENASE” (GLAXOSMITHKLINE INTELLECTUAL PROPERTY DEVELOPMENT LIMITED, priority 2017, published 2021)

Target: T1, indoleamine 2, 3-dioxygenase (IDO1) (Homo sapiens, UniProt P14902)
T1 construct: human peripheral blood mononuclear cells (PBMC) (PB003F; host or cells: human PBMC stimulated with IFN-gamma and LPS
Assay: PBMC IDO1 assay (kynurenine detection via mass spectrometry)
Assay type: cell-based
Conditions: human PBMC stimulated with IFN-γ and LPS, 2 days, kynurenine by mass spectrometry; read-out: IDO1 PBMC pIC50 (converted)
Outline: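 Kynurenine output, read by RapidFire mass spectrometry as a ratio to internal standard, reflected IDO1 activity in human PBMCs induced with 100 ng/ml IFN-γ plus 50 ng/ml LPS and dosed with compound (11 points, 3-fold) over 2 days. Cytotoxicity was tracked by CellTiter-Glo; XC50 values came from Hill-slope fits.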

T1 sequence (P14902 whole entry): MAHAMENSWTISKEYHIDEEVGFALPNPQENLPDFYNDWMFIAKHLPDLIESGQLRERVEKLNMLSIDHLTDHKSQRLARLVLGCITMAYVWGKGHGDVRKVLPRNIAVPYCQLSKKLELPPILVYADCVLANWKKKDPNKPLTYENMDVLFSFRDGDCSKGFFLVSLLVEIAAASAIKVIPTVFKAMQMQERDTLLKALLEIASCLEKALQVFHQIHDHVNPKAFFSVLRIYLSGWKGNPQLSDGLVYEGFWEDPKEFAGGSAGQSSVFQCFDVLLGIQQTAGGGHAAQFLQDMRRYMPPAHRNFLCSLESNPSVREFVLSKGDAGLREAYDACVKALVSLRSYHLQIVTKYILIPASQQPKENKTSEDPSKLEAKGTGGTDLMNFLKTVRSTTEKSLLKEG

Row | IC50 | SMILES
1 | 31.6 nM | CCOC(=O)N1CCC(CC(NC(=O)c2ccc(F)cc2)C2CC2)CC1 (stereo not drawn) [Example 108, ethyl 4-(2-cyclopropyl-2-(4-fluorobenzamido)ethyl)piperidine-1-carboxylate]
2 | 31.6 nM | COc1ccc(C(=O)NC(CC2CCN(C(=O)OC(C)(C)C)CC2)c2ccccc2)cc1F (stereo not drawn) [Example 109, tert-butyl 4-(2-(3-fluoro-4-methoxybenzamido)-2-phenylethyl)piperidine-1-carboxylate]
3 | 31.6 nM | CC(C)(C)OC(=O)N1CCC(CC(NC(=O)c2ccc(C(F)(F)F)cc2)c2ccccc2)CC1 (stereo not drawn) [Example 110, tert-butyl 4-(2-phenyl-2-(4-(trifluoromethyl)benzamido)ethyl)piperidine-1-carboxylate]
4 | 31.6 nM | COc1ccc(C(CC2CCN(C(=O)OC(C)(C)C)CC2)NC(=O)c2ccc(SC)cc2)cn1 (stereo not drawn) [Example 111, tert-butyl 4-(2-(6-methoxypyridin-3-yl)-2-(4-(methylthio)benzamido)ethyl)piperidine-1-carboxylate]
5 | 31.6 nM | CCN(CC)c1nnc(C(CC2CCN(C(=O)OC(C)(C)C)CC2)NC(=O)c2ccc(F)cc2)o1 (stereo not drawn) [Example 112, tert-butyl 4-(2-(5-(diethylamino)-1,3,4-oxadiazol-2-yl)-2-(4-fluorobenzamido)ethyl)piperidine-1-carboxylate]
6 | 31.6 nM | COCCN(C)c1nnc(C(CC2CCN(C(=O)OC(C)(C)C)CC2)NC(=O)c2ccc(Cl)s2)o1 (stereo not drawn) [Example 113, tert-butyl 4-(2-(5-chlorothiophene-2-carboxamido)-2-(5-((2-methoxyethyl)(methyl)amino)-1,3,4-oxadiazol-2-yl)ethyl)piperidine-1-carboxylate]
7 | 31.6 nM | C#CCOc1ccc(C(=O)NC(CC2CCN(C(=O)OC(C)(C)C)CC2)c2ccccc2)cc1F (stereo not drawn) [Example 114, tert-butyl 4-(2-(3-fluoro-4-(prop-2-yn-1-yloxy)benzamido)-2-phenylethyl)piperidine-1-carboxylate]
8 | 31.6 nM | CC(C)(C)OC(=O)N1CCC(CC(NC(=O)c2ccc(Cl)s2)C2CCCC2)CC1 (stereo not drawn) [Example 115, tert-butyl 4-(2-(5-chlorothiophene-2-carboxamido)-2-cyclopentylethyl)piperidine-1-carboxylate]
9 | 31.6 nM | CC(C)(C)OC(=O)N1CCC(CC(NC(=O)c2ccc(F)s2)C2CCCC2)CC1 (stereo not drawn) [Example 116, tert-butyl 4-(2-cyclopentyl-2-(5-fluorothiophene-2-carboxamido)ethyl)piperidine-1-carboxylate]
10 | 31.6 nM | O=C(NC(CC1CCN(C(=O)OCc2ccccc2)CC1)c1ccccc1)c1ccc(Cl)cc1 (stereo not drawn) [Example 117, benzyl 4-(2-(4-chlorobenzamido)-2-phenylethyl)piperidine-1-carboxylate]
11 | 31.6 nM | CCc1ccc(C(=O)NC(CC2CCN(C(=O)OC(C)(C)C)CC2)c2ccccc2)cc1 (stereo not drawn) [Example 118, tert-butyl 4-(2-(4-ethylbenzamido)-2-phenylethyl)piperidine-1-carboxylate]
12 | 31.6 nM | C=Cc1ccc(C(=O)NC(CC2CCN(C(=O)OC(C)(C)C)CC2)c2ccccc2)cc1 (stereo not drawn) [Example 119, tert-butyl 4-(2-phenyl-2-(4-vinylbenzamido)ethyl)piperidine-1-carboxylate]
13 | 39.8 nM | CCOC(=O)N1CCC(CC(NC(=O)c2ccc(F)cc2)c2ccccc2)CC1 (stereo not drawn) [Example 120, ethyl 4-(2-(4-fluorobenzamido)-2-phenylethyl)piperidine-1-carboxylate]
14 | 39.8 nM | O=C(NC(CC1CCN(C(=O)Oc2ccccc2)CC1)c1ccccc1)c1ccc(F)cc1 (stereo not drawn) [Example 121, phenyl 4-(2-(4-fluorobenzamido)-2-phenylethyl)piperidine-1-carboxylate]
15 | 39.8 nM | CCN(CC)c1ccc(C(CC2CCN(C(=O)OC(C)(C)C)CC2)NC(=O)c2ccc(F)cc2)cn1 (stereo not drawn) [Example 122, tert-butyl 4-(2-(6-(diethylamino)pyridin-3-yl)-2-(4-fluorobenzamido)ethyl)piperidine-1-carboxylate]
